Measurements as given in ChEMBL document CHEMBL2380240, “Discovery, synthesis, selectivity modulation and DMPK characterization of 5-azaspiro[2.4]heptanes as potent orexin receptor antagonists” (Bioorg Med Chem Lett, 2013).

What was measured:
[1] = biological target: T1, Orexin/Hypocretin receptor type 1 (Homo sapiens) (UniProt O43613); test: Antagonist activity at human recombinant OX1 receptor expressed in CHO cells assessed as OXA-stimulated intracellular calcium mobilization by FLIPR assay; assay type: functional, cell-based
T1 sequence (whole entry): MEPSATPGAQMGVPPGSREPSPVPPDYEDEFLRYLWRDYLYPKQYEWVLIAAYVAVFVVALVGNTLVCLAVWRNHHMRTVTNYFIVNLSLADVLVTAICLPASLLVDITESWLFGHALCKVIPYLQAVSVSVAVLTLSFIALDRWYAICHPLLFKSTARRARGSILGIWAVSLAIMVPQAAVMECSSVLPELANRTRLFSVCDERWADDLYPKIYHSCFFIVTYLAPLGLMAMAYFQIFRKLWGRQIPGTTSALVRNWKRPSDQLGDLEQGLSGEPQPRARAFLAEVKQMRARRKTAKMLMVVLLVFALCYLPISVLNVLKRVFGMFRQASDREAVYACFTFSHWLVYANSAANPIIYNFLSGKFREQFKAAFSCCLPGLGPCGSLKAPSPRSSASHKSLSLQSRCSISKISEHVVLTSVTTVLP

[2] = biological target: T2, Orexin receptor type 2 (Homo sapiens) (UniProt O43614); test: Antagonist activity at human recombinant OX2 receptor expressed in HEK293 cells assessed as OXB-stimulated intracellular calcium mobilization by FLIPR assay; assay type: functional, cell-based
T2 sequence (whole entry): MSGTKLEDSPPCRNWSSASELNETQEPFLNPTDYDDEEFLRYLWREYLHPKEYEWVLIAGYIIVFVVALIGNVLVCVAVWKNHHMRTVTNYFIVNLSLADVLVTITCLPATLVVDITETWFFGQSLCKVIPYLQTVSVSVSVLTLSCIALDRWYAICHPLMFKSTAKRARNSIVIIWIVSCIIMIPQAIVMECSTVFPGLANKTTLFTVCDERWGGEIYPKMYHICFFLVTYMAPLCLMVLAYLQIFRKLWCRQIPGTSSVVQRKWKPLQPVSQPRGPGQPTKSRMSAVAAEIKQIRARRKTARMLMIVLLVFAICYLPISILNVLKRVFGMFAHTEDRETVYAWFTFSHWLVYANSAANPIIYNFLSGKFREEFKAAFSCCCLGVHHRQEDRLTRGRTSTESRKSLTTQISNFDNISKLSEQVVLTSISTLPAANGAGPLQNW

CYP3A4 [3] = biological target: T3, CYP3A4 (Homo sapiens, UniProt P08684); test: Inhibition of human recombinant CYP3A4 using BFC as substrate at 3 uM by fluorimetric assay; assay type: ADME; settings: recombinant CYP3A4, probe BFC
CYP1A2 [4] = biological target: T4, CYP1A2 (Homo sapiens, UniProt P05177); test: Inhibition of human recombinant CYP1A2 at 3 uM by fluorimetric assay; assay type: ADME
T4 sequence (P05177 whole entry): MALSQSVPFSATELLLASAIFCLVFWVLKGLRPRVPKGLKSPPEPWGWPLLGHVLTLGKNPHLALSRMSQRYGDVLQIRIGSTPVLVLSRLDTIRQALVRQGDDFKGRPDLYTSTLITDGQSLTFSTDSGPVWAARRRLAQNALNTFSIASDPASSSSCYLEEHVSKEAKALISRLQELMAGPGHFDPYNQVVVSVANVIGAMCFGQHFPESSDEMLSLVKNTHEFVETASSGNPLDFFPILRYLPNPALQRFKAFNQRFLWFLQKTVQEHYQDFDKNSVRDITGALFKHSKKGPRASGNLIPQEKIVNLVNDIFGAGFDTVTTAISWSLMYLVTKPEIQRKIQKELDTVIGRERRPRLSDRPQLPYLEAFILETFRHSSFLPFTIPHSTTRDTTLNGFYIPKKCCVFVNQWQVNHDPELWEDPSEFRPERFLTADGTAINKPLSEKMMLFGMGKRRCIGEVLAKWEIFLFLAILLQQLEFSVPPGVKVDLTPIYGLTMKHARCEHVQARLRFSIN

CYP3A4 [5] = biological target: T3, CYP3A4; test: Inhibition of human recombinant CYP3A4 using DBF as substrate at 3 uM by fluorimetric assay; assay type: ADME; settings: recombinant CYP3A4, probe DBF
CYP2C9 [6] = biological target: T5, CYP2C9 (Homo sapiens, UniProt P11712); test: Inhibition of human recombinant CYP2C9 at 3 uM by fluorimetric assay; assay type: ADME
CYP2C19 [7] = biological target: T6, CYP2C19 (Homo sapiens, UniProt P33261); test: Inhibition of human recombinant CYP2C19 at 3 uM by fluorimetric assay; assay type: ADME
CYP2D6 [8] = biological target: T7, CYP2D6 (Homo sapiens, UniProt P10635); test: Inhibition of human recombinant CYP2D6 at 3 uM by fluorimetric assay; assay type: ADME
CYP2C19 [9] = biological target: T6, CYP2C19; test: Inhibition of human recombinant CYP2C19 at 1 uM by fluorimetric assay; assay type: ADME
CYP3A4 [10] = biological target: T3, CYP3A4; test: Inhibition of human recombinant CYP3A4 using DBF as substrate at 1 uM by fluorimetric assay; assay type: ADME; settings: recombinant CYP3A4, probe DBF
CYP2C9 [11] = biological target: T5, CYP2C9; test: Inhibition of human recombinant CYP2C9 at 1 uM by fluorimetric assay; assay type: ADME
CYP1A2 [12] = biological target: T4, CYP1A2; test: Inhibition of human recombinant CYP1A2 at 1 uM by fluorimetric assay; assay type: ADME
CYP3A4 [13] = biological target: T3, CYP3A4; test: Inhibition of human recombinant CYP3A4 using BFC as substrate at 1 uM by fluorimetric assay; assay type: ADME; settings: recombinant CYP3A4, probe BFC
CYP2D6 [14] = biological target: T7, CYP2D6; test: Inhibition of human recombinant CYP2D6 at 1 uM by fluorimetric assay; assay type: ADME

T5 sequence (P11712 whole entry): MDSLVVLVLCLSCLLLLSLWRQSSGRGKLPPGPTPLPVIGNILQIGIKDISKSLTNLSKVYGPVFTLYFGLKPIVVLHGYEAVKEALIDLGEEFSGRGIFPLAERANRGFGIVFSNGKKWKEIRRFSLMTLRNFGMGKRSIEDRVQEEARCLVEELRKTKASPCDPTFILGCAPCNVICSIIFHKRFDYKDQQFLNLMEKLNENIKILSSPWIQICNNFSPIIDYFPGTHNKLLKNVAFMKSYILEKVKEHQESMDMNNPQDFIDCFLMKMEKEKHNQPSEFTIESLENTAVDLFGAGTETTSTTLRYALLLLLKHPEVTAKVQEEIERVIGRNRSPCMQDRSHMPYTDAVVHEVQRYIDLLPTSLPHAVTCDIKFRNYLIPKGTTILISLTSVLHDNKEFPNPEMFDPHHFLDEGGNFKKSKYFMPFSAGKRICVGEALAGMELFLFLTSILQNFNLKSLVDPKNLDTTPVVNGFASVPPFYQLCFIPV
T7 sequence (P10635 whole entry): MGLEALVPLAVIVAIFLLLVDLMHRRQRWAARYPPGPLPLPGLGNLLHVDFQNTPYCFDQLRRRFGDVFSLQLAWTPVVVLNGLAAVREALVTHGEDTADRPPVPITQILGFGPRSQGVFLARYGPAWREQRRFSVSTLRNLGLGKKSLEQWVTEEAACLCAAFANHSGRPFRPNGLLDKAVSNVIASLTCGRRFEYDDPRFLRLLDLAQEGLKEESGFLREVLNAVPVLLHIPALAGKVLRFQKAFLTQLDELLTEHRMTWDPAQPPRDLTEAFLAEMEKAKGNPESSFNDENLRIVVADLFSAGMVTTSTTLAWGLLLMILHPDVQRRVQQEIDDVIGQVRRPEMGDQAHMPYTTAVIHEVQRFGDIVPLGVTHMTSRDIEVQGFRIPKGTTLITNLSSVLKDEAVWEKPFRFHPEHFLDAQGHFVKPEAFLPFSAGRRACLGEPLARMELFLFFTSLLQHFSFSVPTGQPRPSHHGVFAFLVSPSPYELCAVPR
T6 sequence (P33261 whole entry): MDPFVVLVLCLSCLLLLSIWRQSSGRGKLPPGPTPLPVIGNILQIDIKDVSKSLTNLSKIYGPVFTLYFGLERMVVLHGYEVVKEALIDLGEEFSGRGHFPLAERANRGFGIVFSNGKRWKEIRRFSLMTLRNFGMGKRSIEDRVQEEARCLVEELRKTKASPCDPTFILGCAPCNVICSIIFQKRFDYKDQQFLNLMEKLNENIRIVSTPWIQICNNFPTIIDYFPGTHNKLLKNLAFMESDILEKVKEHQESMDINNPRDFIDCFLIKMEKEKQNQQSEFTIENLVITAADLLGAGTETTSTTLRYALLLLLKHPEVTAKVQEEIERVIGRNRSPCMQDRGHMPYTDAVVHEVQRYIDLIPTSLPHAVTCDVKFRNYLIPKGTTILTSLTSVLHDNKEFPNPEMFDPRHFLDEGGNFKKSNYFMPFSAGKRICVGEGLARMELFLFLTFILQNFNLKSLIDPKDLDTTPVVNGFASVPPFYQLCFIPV
T3 sequence (P08684 whole entry): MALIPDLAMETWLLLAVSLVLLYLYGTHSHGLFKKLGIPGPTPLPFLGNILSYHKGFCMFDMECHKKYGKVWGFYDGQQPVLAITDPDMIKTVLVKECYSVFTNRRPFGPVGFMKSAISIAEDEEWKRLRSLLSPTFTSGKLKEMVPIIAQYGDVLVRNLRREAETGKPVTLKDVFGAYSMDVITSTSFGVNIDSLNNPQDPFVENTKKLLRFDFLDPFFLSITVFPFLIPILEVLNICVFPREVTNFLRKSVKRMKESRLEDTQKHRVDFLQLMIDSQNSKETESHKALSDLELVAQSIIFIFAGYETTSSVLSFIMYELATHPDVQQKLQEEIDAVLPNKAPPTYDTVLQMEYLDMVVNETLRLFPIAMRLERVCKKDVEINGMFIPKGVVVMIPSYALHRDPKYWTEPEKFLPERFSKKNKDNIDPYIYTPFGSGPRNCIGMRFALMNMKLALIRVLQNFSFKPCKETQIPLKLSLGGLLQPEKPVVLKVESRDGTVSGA

SMILES	pKb [1]	pKb [2]	inhibition at 3 µM (CYP3A4 [3])	inhibition at 3 µM (CYP1A2 [4])	inhibition at 3 µM (CYP3A4 [5])	inhibition at 3 µM (CYP2C9 [6])	inhibition at 3 µM (CYP2C19 [7])	inhibition at 3 µM (CYP2D6 [8])	inhibition at 1 µM (CYP2C19 [9])	inhibition at 1 µM (CYP3A4 [10])	inhibition at 1 µM (CYP2C9 [11])	inhibition at 1 µM (CYP1A2 [12])	inhibition at 1 µM (CYP3A4 [13])	inhibition at 1 µM (CYP2D6 [14])
Cc1ccc(-n2nccn2)c(C(=O)N2CC3(CC3)C[C@H]2CNc2ccc(Cl)cn2)c1	8.1	< 5												
Cc1ccc(OCc2ccccc2)c(C(=O)N2CC3(CC3)C[C@H]2CNc2ccc(C(F)(F)F)cn2)n1	8.6	8.6	< 71%	< 71%	< 71%	< 71%	< 71%	< 71%						
O=C(c1cc(Cl)ccc1-c1ncccn1)N1CC2(CC2)C[C@H]1CNc1ccc(C(F)(F)F)cn1	8.1	7.2	< 22%	< 22%	< 22%	< 22%	< 22%	< 22%						
CS(=O)(=O)c1ccc(-c2ccccc2)c(C(=O)N2CC3(CC3)C[C@H]2CNc2ccc(C(F)(F)F)cn2)c1	6.7	7.1	< 41%	< 41%	< 41%	< 41%	< 41%	< 41%						
Cc1ccc(-n2nccn2)c(C(=O)N2CCC3(CC3)C[C@H]2CNc2ccc(Cl)cn2)c1	7.5	< 5												
O=C(c1cc(Cl)ccc1-c1ncccn1)N1CC2(CC2)C[C@H]1CNc1cc(C(F)(F)F)ccn1	8.1	7.1							< 57%	< 57%	< 57%	< 57%	< 57%	< 57%
N#Cc1ccc(-c2ncccn2)c(C(=O)N2CC3(CC3)C[C@H]2CNc2ccc(C(F)(F)F)cn2)c1	8	8.1	< 32%	< 32%	< 32%	< 32%	< 32%	< 32%						
O=C(c1ncccc1-c1ncccn1)N1CC2(CC2)C[C@H]1CNc1ccc(C(F)(F)F)cn1	7.7	5	< 47%	< 47%	< 47%	< 47%	< 47%	< 47%						

More lines, now with the values ahead:

pKb [1]	pKb [2]	inhibition at 3 µM (CYP3A4 [3])	inhibition at 3 µM (CYP1A2 [4])	inhibition at 3 µM (CYP3A4 [5])	inhibition at 3 µM (CYP2C9 [6])	inhibition at 3 µM (CYP2C19 [7])	inhibition at 3 µM (CYP2D6 [8])	inhibition at 1 µM (CYP2C19 [9])	inhibition at 1 µM (CYP3A4 [10])	inhibition at 1 µM (CYP2C9 [11])	inhibition at 1 µM (CYP1A2 [12])	inhibition at 1 µM (CYP3A4 [13])	inhibition at 1 µM (CYP2D6 [14])	SMILES
7	6.9	< 58%	< 58%	< 58%	< 58%	< 58%	< 58%							O=C(c1nc(OC(F)(F)F)ccc1-c1ncccn1)N1CC2(CC2)C[C@H]1CNc1ccc(C(F)(F)F)cn1
7.6	< 5													Cc1ccc(-c2ncccn2)c(C(=O)N2CCC3(CC3)C[C@H]2CNc2ccc(Cl)cn2)c1
7.3	7.8							< 72%	< 72%	< 72%	< 72%	< 72%	< 72%	Cc1ccc(-c2ncccn2)c(C(=O)N2CC3(CC3)C[C@H]2CNc2cc(C(F)(F)F)ccn2)c1
7.9	< 5													Cc1nc(C(=O)N2CCC3(CC3)C[C@H]2CNc2ccc(Cl)cn2)c(-c2ccccc2)s1
8.2	8.5							< 55%	< 55%	< 55%	< 55%	< 55%	< 55%	Cc1nc(C(=O)N2CC3(CC3)C[C@H]2CNc2cc(C(F)(F)F)ccn2)c(-c2ccccc2)s1
